Experimental data reported in patent US20220056043A1, “NITROGEN-CONTAINING FUSED CYCLIC COMPOUND, PREPARATION METHOD THEREFOR AND USE THEREOF” (SICHUAN KELUN-BIOTECH BIOPHARMACEUTICAL CO., LTD., priority 2019, published 2022).

Key:
hTLR8 = biological target: T1, hTLR8 (Homo sapiens, UniProt Q9NR97); assay: Agonistic effect on hTLR8, HEK-Blue hTLR8 cells, alkaline phosphatase secretion; format: cell-based; details: 16 hours
T1 construct: host or cells: HEK-Blue hTLR8 cells
T1 sequence (Q9NR97 27-1041): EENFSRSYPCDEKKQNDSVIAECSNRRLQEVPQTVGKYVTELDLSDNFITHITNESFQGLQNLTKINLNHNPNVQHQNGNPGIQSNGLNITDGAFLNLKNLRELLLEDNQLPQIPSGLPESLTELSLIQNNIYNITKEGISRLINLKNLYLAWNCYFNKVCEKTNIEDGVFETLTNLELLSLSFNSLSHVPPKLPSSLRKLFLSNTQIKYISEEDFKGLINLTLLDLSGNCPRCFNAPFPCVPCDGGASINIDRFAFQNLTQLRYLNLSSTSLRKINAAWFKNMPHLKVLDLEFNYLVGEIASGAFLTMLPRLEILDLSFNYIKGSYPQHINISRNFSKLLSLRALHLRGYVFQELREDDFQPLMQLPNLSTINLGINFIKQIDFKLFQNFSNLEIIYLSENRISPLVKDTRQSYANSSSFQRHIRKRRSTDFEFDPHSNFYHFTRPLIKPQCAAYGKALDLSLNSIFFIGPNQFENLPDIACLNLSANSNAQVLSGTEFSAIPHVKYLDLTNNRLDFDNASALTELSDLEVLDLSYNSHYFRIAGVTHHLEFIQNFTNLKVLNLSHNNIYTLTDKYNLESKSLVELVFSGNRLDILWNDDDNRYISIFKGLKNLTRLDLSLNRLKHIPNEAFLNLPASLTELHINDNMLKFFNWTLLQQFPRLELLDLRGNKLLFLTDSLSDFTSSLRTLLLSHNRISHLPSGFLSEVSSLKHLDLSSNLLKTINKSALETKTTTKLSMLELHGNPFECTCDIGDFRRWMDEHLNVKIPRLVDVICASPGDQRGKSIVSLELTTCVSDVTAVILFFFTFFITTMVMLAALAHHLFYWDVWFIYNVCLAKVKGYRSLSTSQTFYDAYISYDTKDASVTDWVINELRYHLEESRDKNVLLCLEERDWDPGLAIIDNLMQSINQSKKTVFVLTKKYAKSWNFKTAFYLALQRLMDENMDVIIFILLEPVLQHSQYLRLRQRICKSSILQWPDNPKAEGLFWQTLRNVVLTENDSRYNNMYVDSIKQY
Protocol: Experimental Example 4: Agonistic Effect of the Compound of the Invention on hTLR8
In this test, the secretion of alkaline phosphatase in HEK-Blue cells was measured to test the activating effect of the compound of the invention on TLR8 signaling pathway, so as to evaluate the specificity of the agonistic effect of the compound on NLRP3 pathway.
Reagents: DMEM (High glucose); FBS (fetal bovine serum) (Gibco); QUANTI-Blue/InvivoGen/rep-qb2
Cells: HEK-Blue™ hTLR8 cells (human TLR 8 cells) (InvivoGen) Experimental Procedures:
1) The HEK-Blue™ hTLR8 cells in a logarithmic growth phase were trypsinized and resuspended in the medium to a concentration of 2×10^6 cells/mL. 50 μL/well of the cell suspension was added to a 96-well plate. An appropriate amount of 10 mM DMSO solution of the compound to be tested was taken and diluted to a concentration of 2× test concentration with the medium. 50 μL/well was added to the cells in the 96-well plate. The plate was incubated in an incubator at 37° C. and 5% CO2 for 16 hours. The medium was DMEM (High glucose) containing 10% FBS. 2) After the cell incubation, 10 μL of cell culture supernatant was transferred to a 96-well plate. 90 μL/well of QUANTI-Blue detection solution was added, and the mixture was incubated at 37° C. for 3 hours. OD620 was read using a microplate reader.
3) The EC50 of the effect of the tested compound to stimulate hTLR8 was fitted by the GraphPad software log(agonist) vs. response—Variable slope four-parameter method.

THP1-defNLRP3 cells = assay: Agonistic effect on the expression of IL-1β in NLRP3 deficient THP1 cells (THP1-defNLRP3) after PMA-induced differentiation (HTRF); format: cell-based, human; details: Homo sapiens, THP-1; IL-1β level, PMA-differentiated NLRP3 deficient THP1 cells, 6 hours; highest test concentration 30 μM; read-out: hNLRP3 EC50 (μM) (THP-1defNLRP3)
Excerpt: Experimental Example 2: Agonistic Effect of the Compound of the Invention on the Expression of IL-1β in NLRP3 Deficient THP1 Cells (THP1-defNLRP3 Cells) after PMA-Induced Differentiation
In this test, a HTRF detection method was used to test the effect of the compound of the invention on the level of IL-1β in THP1-defNLRP3 cells to evaluate the specificity of the agonistic effect of the compound on hNLRP3 inflammasome or hNLRP3 inflammasome pathway.
Reagents: as described in Experimental Example 1
Cell: THP1-defNLRP3 (InvivoGen)
Kit: IL-1β assay kit (CISBIO)
1) THP1-defNLRP3 cells in a logarithmic growth phase were seeded in a T75 culture flask at a density of 5×10^5 cells/well, and cultured in a cell incubator at 37° C., 5% CO2 for 24 hours, and then 1 μM PMA was used to induce THP1-defNLRP3 suspension cells to become adherent macrophages. The medium was RPMI 1640 containing 10% heat-inactivated FBS and 0.05 mM β-mercaptoethanol.
2) The cells were induced and cultured for 24 hours. Then the adherent cells were trypsinized and centrifuged at 1000 rpm for 5 min. The supernatant was removed, and the cells were resuspended to a density of 2×10^6 cells/mL in RPMI 1640 medium containing 2% heat-inactivated FBS. 50 μL/well of the cell resuspension was taken and spread on a 96-well plate such that the number of cells in each well was 1×10^5.
3) An appropriate amount of 10 mM DMSO solution of the compound to be tested was taken and diluted to a concentration of 2× test concentration with RPMI 1640 medium containing 2% heat-inactivated FBS. 50 μL/well of the dilution was added to the cells in the 96-well plate, and mixed well. The plate was incubated in a cell incubator at 37° C., 5% CO2 for 6 hours. The supernatant was collected, and the level of IL-1β was measured in accordance with the instructions of the IL-1β detection kit.
4) EC50 was fitted by the GraphPad software log(agonist) vs. response—Variable slope four-parameter method.

| SMILES | EC50 (hTLR8) [µM] | EC50 (THP1-defNLRP3 cells) [µM] |
| --- | --- | --- |
| Cc1cccc(-c2cc3nc(N)cc(NCCCO)c3s2)n1 [Compound 91, 3-((5-amino-2-(6-methylpyridin-2-yl)thieno[3,2-b]pyridin-7-yl)amino)-1-propanol] | > 100 | > 30 |
| CC(=O)N1CCC(Nc2cc(N)nc3cc(-c4ccn[nH]4)sc23)CC1 [Compound 92, 1-(4-((5-amino-2-(1H-pyrazol-5-yl)thieno[3,2-b]pyridin-7-yl)amino)piperidin-1-yl)ethanone] | > 100 | > 30 |
| Nc1cc(NCCCO)c2sc(-c3ccccc3)cc2n1 [Compound 93, 3-((5-amino-2-phenylthieno[3,2-b]pyridin-7-yl)amino)-1-propanol] | > 100 | > 30 |
| CC[C@H](CO)Nc1cc(N)nc2cc(-c3ccn[nH]3)sc12 [Compound 95, (R)-2-((5-amino-2-(1H-pyrazol-5-yl)thieno[3,2-b]pyridin-7-yl)amino)butanol] | > 100 | > 30 |
| Nc1cc(N[C@@H]2CCC[C@@H]2O)c2sc(-c3ccn[nH]3)cc2n1 [Compound 96, (1S,2R)-2-((5-amino-2-(1H-pyrazol-5-yl)thieno[3,2-b]pyridin-7-yl)amino)cyclopentanol] | > 100 | > 30 |
| Nc1cc(NCC(F)(F)c2ccccn2)c2sc(-c3ccn[nH]3)cc2n1 [Compound 97, N^7-(2,2-difluoro-2-(pyridin-2-yl)ethyl)-2-(1H-pyrazol-5-yl)thieno[3,2-b]pyridine-5,7-diamine] | > 100 | > 30 |
| CC1(O)CCN(CCNc2cc(N)nc3cc(-c4ccn[nH]4)sc23)CC1 [Compound 98, 1-(2-((5-amino-2-(1H-pyrazol-5-yl)thieno[3,2-b]pyridin-7-yl)amino)ethyl)-4-methylpiperidine-4-ol] | > 100 | > 30 |
| CC1(O)CCN(CCCNc2cc(N)nc3cc(-c4ccn[nH]4)sc23)CC1 [Compound 99, 1-(3-((5-amino-2-(1H-pyrazol-5-yl)thieno[3,2-b]pyridin-7-yl)amino)propyl)-4-methylpiperidine-4-ol] | > 100 | > 30 |
| COCCNc1cc(N)nc2cc(-c3ccn[nH]3)sc12 [Compound 100, N^7-(2-methoxyethyl)-2-(1H-pyrazol-5-yl)thieno[3,2-b]pyridine-5,7-diamine] | > 100 | > 30 |
| CO[C@H](C)CNc1cc(N)nc2cc(-c3ccn[nH]3)sc12 [Compound 101, (R)—N^7-(2-methoxypropyl)-2-(1H-pyrazol-5-yl)thieno[3,2-b]pyridine-5,7-diamine] | > 100 | > 30 |
| Nc1cc(NCC2CC2)c2sc(-c3ccn[nH]3)cc2n1 [Compound 102, N^7-(cyclopropylmethyl)-2-(1H-pyrazol-5-yl)thieno[3,2-b]pyridine-5,7-diamine] | > 100 | > 30 |
| CN1CCC[C@@H](Nc2cc(N)nc3cc(-c4ccn[nH]4)sc23)C1 [Compound 104, (R)—N^7-(1-methylpiperidin-3-yl)-2-(1H-pyrazol-5-yl)thieno[3,2-b]pyridine-5,7-diamine] | > 100 | > 30 |
| Nc1cc(NC[C@@H]2CCCO2)c2sc(-c3ccn[nH]3)cc2n1 [Compound 105, (S)-2-(1H-pyrazol-5-yl)-N^7-((tetrahydrofuran-2-yl)methyl)thieno[3,2-b]pyridine-5,7-diamine] | > 100 | > 30 |
| Cn1cc(CNc2cc(N)nc3cc(-c4ccn[nH]4)sc23)cn1 [Compound 106, N^7-(1-methyl-1H-pyrazol-4-yl)methyl-2-(1H-pyrazol-5-yl)thieno[3,2-b]pyridine-5,7-diamine] | > 100 | > 30 |
| C[C@@H](CO)Nc1cc(N)nc2cc(-c3ccn[nH]3)sc12 [Compound 108, (S)-2-((5-amino-2-(1H-pyrazol-5-yl)thieno[3,2-b]pyridin-7-yl)amino)propanol] | > 100 | > 30 |
| Cn1cc(-c2cc3nc(N)cc(NCCCO)c3s2)cn1 [Compound 109, 3-((5-amino-2-(1-methyl-1H-pyrazol-4-yl)thieno[3,2-b]pyridin-7-yl)amino)-1-propanol] | > 100 | > 30 |
| Nc1cc(NC2CCCC2)c2sc(-c3ccn[nH]3)cc2n1 [Compound 110, N^7-cyclopentyl-2-(1H-pyrazol-5-yl)thieno[3,2-b]pyridine-5,7-diamine] | > 100 | > 30 |
| COC(C)(C)CNc1cc(N)nc2cc(-c3ccn[nH]3)sc12 [Compound 111, N^7-(2′-methoxy-2′-methylpropyl)-2-(1H-pyrazol-5-yl)thieno[3,2-b]pyridine-5,7-diamine] | > 100 | > 30 |
| Nc1cc(NC2COC2)c2sc(-c3ccn[nH]3)cc2n1 [Compound 112, N^7-(oxetan-3-yl)-2-(1H-pyrazol-5-yl)thieno[3,2-b]pyridine-5,7-diamine] | > 100 | > 30 |
| CCC(CC)Nc1cc(N)nc2cc(-c3ccn[nH]3)sc12 [Compound 113, N^7-(pent-3-yl)-2-(1H-pyrazol-5-yl)thieno[3,2-b]pyridine-5,7-diamine] | > 100 | > 30 |
| Nc1cc(NC2CCC(O)CC2)c2sc(-c3ccn[nH]3)cc2n1 (stereo not shown) [Compound 114, 4-((5-amino-2-(1H-pyrazol-5-yl)thieno[3,2-b]pyridin-7-yl)amino)-1-cyclohexanol] | > 100 | > 30 |
| CC(C)(CO)CNc1cc(N)nc2cc(-c3ccn[nH]3)sc12 [Compound 115, 3-((5-amino-2-(1H-pyrazol-5-yl)thieno[3,2-b]pyridin-7-yl)amino)-2,2-dimethyl-1-propanol] | > 100 | > 30 |
| Nc1cc(NCC(F)F)c2sc(-c3ccn[nH]3)cc2n1 [Compound 116, N^7-(2,2-difluoroethyl)-2-(1H-pyrazol-5-yl)thieno[3,2-b]pyridine-5,7-diamine] | > 100 | > 30 |
